Results as given in patent US7090872B2, “Antioxidant, skin preparation for external use, cosmetic and food” (Nichirei Biosciences Inc., priority 2002, dated 2006).

Test: Antioxidative activity measurement using linoleic acid (ferric thiocyanate method)
Conditions: 0.023 mg of vitamin C (amount contained in 0.4 mg of the solid); control = 100%
Method: Next, the antioxidative activity of the obtained extract was measured by antioxidative activity measurement using linoleic acid (ferric thiocyanate method).
Specifically, a mixture of 0.4 mg of the acerola seed extract, 2 ml of 99.5% ethanol, and 2 ml of distilled water was mixed with a reaction liquid composed of 2 ml of 2.5% (w/v) linoleic acid (99.5% ethanol solution) and 4 ml of a 0.05 M phosphate buffer (pH 7.0), and placed in a brown threaded bottle, to thereby prepare 10 ml of a test liquid. On the other hand, test liquids as positive controls were prepared in the same way using α-tocopherol or BHA in place of the acerola seed extract at the same content in the reaction liquid. […] Samples were taken out at intervals, and measured by the following methods. […]
First, to a mixture of 0.1 ml of the sample, 9.7 ml of 75% ethanol, and 0.1 ml of a 30% aqueous solution of ammonium rhodanide, 0.1 ml of 2×10^−2 M ferrous chloride (3.5% hydrochloric acid solution) was added, and exactly 3 minutes later, the absorbance at 500 nm was measured. The same measurement was made with the blanks, and Δabsorbance was taken according to the following formula: Δ absorbance=(absorbance of main sample)−(absorbance of blank). The absorbance increases with oxidation of the sample, and after reaching the maximum, decreases with consumption of the sample to be oxidized. […]

## O=C1O[C@H]([C@@H](O)CO)C(O)=C1O [vitamin C]
  degree of oxidation on day 7: 115.8%
